This note sets out measurements from ChEMBL document CHEMBL4342403, “New evolutions in the BACE1 inhibitor field from 2014 to 2018” (Bioorg Med Chem Lett, 2019).

Broadly, the inhibition in vivo is the percentage by which the read-out fell short of the control. Broadly, the Ki is a dissociation constant, usually derived from enzyme kinetics or from competition with a known ligand. As a reminder, the Kp is tissue or fluid exposure divided by exposure in the circulation. The efflux ratio is a quotient of directional permeabilities that is used to spot active efflux. As a reminder, the IC50 is the concentration that gives 50% inhibition. A word on the pKa: it is the negative logarithm of the acid dissociation constant.

The test system of series [1] is Homo sapiens. The series is described as follows: In vivo inhibition of BACE1 in human assessed as reduction in amyloidbeta40 level in CSF at 12 mg administered once daily for 7 days relative to baseline. Format: functional.
The subject of series [2] is Homo sapiens. Kind of series: In vivo inhibition of BACE1 in human assessed as reduction in amyloidbeta40 level in CSF at 40 mg administered once daily for 7 days relative to baseline. The class given is functional.
Series [3] relates to Homo sapiens. The series is described as follows: In vivo inhibition of BACE1 in human assessed as reduction in amyloidbeta40 level in CSF at 60 mg administered once daily for 7 days relative to baseline. Format: functional.
For series [4], the system named is Mus musculus. The series is described as follows: In vivo inhibition of BACE1 in C57B1/6J mouse assessed as reduction in amyloidbeta 40 level in brain at 30 mg/kg, po measured at 4 hrs post dose by AlphaLISA relative to control. Format: functional.
Series [5] concerns the target T1, Beta-secretase 1 (Homo sapiens, UniProt P56817). The series is described as follows: Inhibition of human BACE1 catalytic domain preincubated for 30 mins followed by QSY7-EISEVNLDAEFC-Europium-amide substrate addition and measured after […] by HTRF assay. A general note: In TR-FRET formats the signal depends on donor and acceptor labels being close together.
The target in series [6] is T2, Beta-secretase 2 (Homo sapiens, UniProt Q9Y5Z0).
T2 sequence (Q9Y5Z0 whole entry): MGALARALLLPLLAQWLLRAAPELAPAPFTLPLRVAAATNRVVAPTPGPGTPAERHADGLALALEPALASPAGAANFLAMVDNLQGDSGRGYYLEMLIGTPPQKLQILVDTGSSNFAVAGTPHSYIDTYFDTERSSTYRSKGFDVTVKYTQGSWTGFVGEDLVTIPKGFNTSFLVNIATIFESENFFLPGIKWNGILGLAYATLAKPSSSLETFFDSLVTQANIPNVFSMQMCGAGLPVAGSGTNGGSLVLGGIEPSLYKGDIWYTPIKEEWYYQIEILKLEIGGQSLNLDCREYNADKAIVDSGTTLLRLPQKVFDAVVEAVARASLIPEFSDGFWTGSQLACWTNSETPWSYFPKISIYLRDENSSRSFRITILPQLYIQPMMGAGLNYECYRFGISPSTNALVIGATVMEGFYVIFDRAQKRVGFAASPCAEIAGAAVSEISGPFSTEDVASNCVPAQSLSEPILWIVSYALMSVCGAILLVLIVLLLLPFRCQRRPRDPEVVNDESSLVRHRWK
Kind of series: Inhibition of human BACE2 preincubated for 30 mins followed by QSY7- EISEVNLDAEFC-Eu-amide substrate addition and measured after […] by HTRF assay.

The test system of series [7] is Rattus norvegicus. The series is described as follows: In vivo inhibition of BACE1 in CD-IGS rat assessed as reduction in amyloidbeta 40 level in CSF at 10 mg/kg, po measured at 3 hrs post dose by sandwich ELISA relative to control. Format: functional. On the technique in general: An ELISA detects its analyte on a solid surface through an enzyme-linked reagent.
Series [8] deals with Homo sapiens. Kind of series: In vivo inhibition of BACE1 in human assessed as reduction in amyloidbeta40 level in CSF at 15 mg administered once daily for 14 days relative to baseline. The class given is functional.
The subject of series [9] is Homo sapiens. Kind of series: In vivo inhibition of BACE1 in human assessed as reduction in amyloidbeta40 level in CSF at 50 mg administered once daily for 14 days relative to baseline. Format: functional.
Series [10] has as its system Homo sapiens. Kind of series: In vivo inhibition of BACE1 in human assessed as reduction in amyloidbeta40 level in CSF at 150 mg administered once daily for 14 days relative to baseline. Format: functional.
Series [11] has as its system Rattus norvegicus. Kind of series: In vivo inhibition of BACE1 in Sprague Dawley rat assessed as reduction in amyloidbeta 40 level in brain at 10 mg/kg, po measured at 3 hrs post dose by ELISA relative to control. The class given is functional.
In series [12] the test system is Rattus norvegicus. Kind of series: In vivo inhibition of BACE1 in Sprague Dawley rat assessed as reduction in amyloidbeta 40 level in brain at 30 mg/kg, po measured at 3 hrs post dose by ELISA relative to control. Format: functional.
The nature of series [13]: Brain to plasma partition coefficient, Kp of the compound in Sprague Dawley rat at 10 mg/kg, po. The class given is ADME, organism-based.
Series [14] can be described thus: Brain to plasma partition coefficient, Kp of the compound in Sprague Dawley rat at 30 mg/kg, po. The class given is ADME, organism-based.
In series [15] the test system is Rattus norvegicus. The series is described as follows: In vivo inhibition of BACE1 in Sprague Dawley rat assessed as reduction in amyloidbeta 40 level in brain at 3 mg/kg, po by ELISA relative to control. The class given is functional.
The nature of series [16]: Drug uptake in Sprague Dawley rat brain at 3 mg/kg, po by UPLC-MS/MS analysis. The class given is ADME, organism-based. Conditions: in vivo.
Series [17] concerns the target T3, P-glycoprotein (ABCB1) (Homo sapiens, UniProt P08183). The series is described as follows: Substrate activity at P-glycoprotein (unknown origin) in MDCK-MDR1cells assessed as efflux ratio incubated over 60 mins by LC-MS/MS analysis. Conditions: MDCK-MDR1.
For series [18], the target named is Beta-secretase 1 (Cricetulus griseus, UniProt G3IAK4). The series is described as follows: Inhibition of BACE1 in CHO cells expressing human APP assessed as reduction in amyloidbeta (1 to 40 residues) level incubated for 24 hrs by immunoassay method. Format: cell-based.
Series [19] addresses T1, Beta-secretase 1. The series is described as follows: Inhibition of BACE1 (unknown origin).
In series [20] the target is T1, Beta-secretase 1. The series is described as follows: Inhibition of BACE1 (unknown origin) by cell-based assay.
In series [21] the target is T2, Beta-secretase 2. The series is described as follows: Inhibition of BACE2 (unknown origin).
In series [22] the test system is Canis familiaris. Kind of series: In vivo inhibition of BACE1 in dog assessed as reduction in amyloidbeta level in CSF at 1 mg/kg, po measured at 24 hrs post dose relative to control. The class given is functional. The conditions noted are these: Canis lupus familiaris.
Series [23] has as its system Canis familiaris. Kind of series: In vivo inhibition of BACE1 in dog assessed as reduction in amyloidbeta level in CSF at 1 mg/kg, po measured at 48 hrs post dose relative to control. Format: functional. Conditions: Canis lupus familiaris.
For series [24], the target named is T1, Beta-secretase 1. The series is described as follows: Inhibition of human BACE1 using biotin-XSEVNLDAEFRHDSGC-Eu as substrate incubated for 3 hrs by fluorescence method.
The target of series [25] is T1, Beta-secretase 1. The series is described as follows: Inhibition of BACE1 (unknown origin) expressed in CHO-K1 cells using Biotin-GLTNIKTEEISEISYAEVEFR-C[Oregon Green]KK-OH as substrate incubated for 3 hrs by fluorescence polarization.
In series [26] the target is T1, Beta-secretase 1. Kind of series: Inhibition of BACE1 in human H4 cells transfected with APP695 assessed as […] incubated for 18 hrs by ELISA. The class given is cell-based.
Series [27] is described as follows: Dissociation constant, pKa of the compound. Format: physicochemical.
Series [28] deals with Voltage-gated inwardly rectifying potassium channel KCNH2 (Homo sapiens, UniProt Q12809). The series is described as follows: Inhibition of human ERG expressed in CHO cells at holding potential of -80 mV by patch clamp method. The class given is cell-based. On the technique in general: Patch clamp records ionic current or voltage across a cell membrane.
Series [29] has as its target T3, P-glycoprotein (ABCB1). The series is described as follows: Substrate activity at P-glycoprotein (unknown origin) in MDCK-MDR1 cells assessed as efflux ratio. The class given is ADME, cell-based.
Series [30] relates to Homo sapiens. The series is described as follows: In vivo inhibition of BACE1 in human assessed as reduction in amyloidbeta40 level in CSF at 30 mg administered once daily after 14 days relative to baseline. The class given is functional.
Series [31] deals with Homo sapiens. Kind of series: In vivo inhibition of BACE1 in human assessed as reduction in amyloidbeta40 level in CSF at 50 mg administered once daily after 14 days relative to baseline. The class given is functional.
The test system of series [32] is Homo sapiens. Kind of series: In vivo inhibition of BACE1 in human assessed as reduction in amyloidbeta40 level in CSF at 90 mg administered once daily after 14 days relative to baseline. The class given is functional.
The target in series [33] is T1, Beta-secretase 1. The series is described as follows: Inhibition of BACE1 (unknown origin) assessed as reduction in amyloidbeta 40 level after 24 hrs by cell-based sandwich ELISA.
Series [34] addresses T1, Beta-secretase 1. The series is described as follows: Inhibition of BACE1 (unknown origin) preincubated for 1 hr followed by substrate addition and measured after 1 hr by FRET assay.
Series [35] has as its target Cathepsin D (Homo sapiens, UniProt P07339). Kind of series: Inhibition of recombinant Cathepsin D (unknown origin) expressed in CHO cells preincubated for 1 hr followed by substrate addition and measured after 1 hr by FRET assay. Format: cell-based.
Series [36] deals with Rattus norvegicus. Kind of series: In vivo inhibition of BACE1 in Sprague Dawley rat assessed as reduction in amyloidbeta 40 level in CSF at 10 mg/kg, po measured at 4 hrs post dose by sandwich ELISA relative to control. The class given is functional.
Series [37] concerns Rattus norvegicus. Kind of series: In vivo inhibition of BACE1 in Sprague Dawley rat assessed as reduction in amyloidbeta 40 level in brain at 10 mg/kg, po measured at 4 hrs post dose by sandwich ELISA relative to control. Format: functional.

Each structure is given as a SMILES string.

T1 sequence (P56817 whole entry, the tested form may be a part): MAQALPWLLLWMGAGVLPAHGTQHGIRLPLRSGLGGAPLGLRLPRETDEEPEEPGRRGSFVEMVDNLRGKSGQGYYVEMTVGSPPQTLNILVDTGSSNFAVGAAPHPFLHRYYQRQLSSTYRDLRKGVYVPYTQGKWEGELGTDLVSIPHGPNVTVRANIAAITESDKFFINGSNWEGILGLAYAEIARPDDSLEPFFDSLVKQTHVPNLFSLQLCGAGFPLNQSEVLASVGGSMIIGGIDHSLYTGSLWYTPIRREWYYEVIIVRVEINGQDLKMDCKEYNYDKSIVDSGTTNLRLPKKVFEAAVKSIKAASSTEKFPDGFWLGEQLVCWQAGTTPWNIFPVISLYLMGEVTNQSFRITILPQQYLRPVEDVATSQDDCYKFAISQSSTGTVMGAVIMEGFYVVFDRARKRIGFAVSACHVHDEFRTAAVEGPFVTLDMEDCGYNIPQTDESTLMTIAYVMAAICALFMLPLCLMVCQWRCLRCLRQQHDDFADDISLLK
T3 sequence (P08183 whole entry, the tested form may be a part): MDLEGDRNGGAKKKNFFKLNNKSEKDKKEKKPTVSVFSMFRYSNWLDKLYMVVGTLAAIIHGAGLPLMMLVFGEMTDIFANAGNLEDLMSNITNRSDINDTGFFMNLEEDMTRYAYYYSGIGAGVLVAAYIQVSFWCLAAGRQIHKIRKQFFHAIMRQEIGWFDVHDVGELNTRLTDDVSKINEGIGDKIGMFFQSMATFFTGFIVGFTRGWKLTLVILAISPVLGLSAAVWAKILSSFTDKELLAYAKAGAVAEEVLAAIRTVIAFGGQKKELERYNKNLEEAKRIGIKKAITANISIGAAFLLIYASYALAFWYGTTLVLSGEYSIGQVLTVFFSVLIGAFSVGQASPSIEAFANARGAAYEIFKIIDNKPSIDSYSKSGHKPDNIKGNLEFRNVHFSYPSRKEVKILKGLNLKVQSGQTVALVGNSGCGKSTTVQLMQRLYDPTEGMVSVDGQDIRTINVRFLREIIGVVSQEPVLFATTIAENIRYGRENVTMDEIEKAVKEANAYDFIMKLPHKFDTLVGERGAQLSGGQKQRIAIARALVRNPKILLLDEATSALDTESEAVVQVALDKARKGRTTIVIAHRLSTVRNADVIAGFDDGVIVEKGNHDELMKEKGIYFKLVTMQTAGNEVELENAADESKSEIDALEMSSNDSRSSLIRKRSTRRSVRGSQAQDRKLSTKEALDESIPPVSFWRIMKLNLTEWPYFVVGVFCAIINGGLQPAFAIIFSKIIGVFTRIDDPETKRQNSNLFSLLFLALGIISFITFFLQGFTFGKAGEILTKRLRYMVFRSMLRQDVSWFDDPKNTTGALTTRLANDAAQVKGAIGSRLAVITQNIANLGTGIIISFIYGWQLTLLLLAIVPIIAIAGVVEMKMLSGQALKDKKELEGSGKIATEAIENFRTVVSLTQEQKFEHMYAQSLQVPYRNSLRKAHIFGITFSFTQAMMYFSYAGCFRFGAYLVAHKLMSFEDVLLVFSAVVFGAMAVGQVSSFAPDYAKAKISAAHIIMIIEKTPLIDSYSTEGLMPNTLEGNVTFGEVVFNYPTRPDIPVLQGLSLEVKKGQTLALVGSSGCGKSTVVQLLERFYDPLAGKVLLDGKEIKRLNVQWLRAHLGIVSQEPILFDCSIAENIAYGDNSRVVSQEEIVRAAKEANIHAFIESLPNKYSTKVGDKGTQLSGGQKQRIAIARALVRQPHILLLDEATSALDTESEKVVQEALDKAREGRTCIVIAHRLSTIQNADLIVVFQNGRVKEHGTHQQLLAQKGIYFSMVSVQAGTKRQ
Sequence of Cathepsin D (P07339 65-162 limits assumed): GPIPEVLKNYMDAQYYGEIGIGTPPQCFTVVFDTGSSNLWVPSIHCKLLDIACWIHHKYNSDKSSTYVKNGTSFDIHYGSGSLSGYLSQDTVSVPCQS
Sequence of Cathepsin D (P07339 169-412 limits assumed): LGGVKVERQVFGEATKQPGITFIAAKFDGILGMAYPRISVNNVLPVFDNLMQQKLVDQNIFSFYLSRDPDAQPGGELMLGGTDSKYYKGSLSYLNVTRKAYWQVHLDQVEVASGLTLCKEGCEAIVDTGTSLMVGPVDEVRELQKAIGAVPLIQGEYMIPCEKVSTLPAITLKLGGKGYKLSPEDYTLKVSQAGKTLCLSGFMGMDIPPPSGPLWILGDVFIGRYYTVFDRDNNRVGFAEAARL
Sequence of Beta-secretase 1 (Cricetulus griseus, UniProt G3IAK4) (G3IAK4 whole entry, the tested form may be a part): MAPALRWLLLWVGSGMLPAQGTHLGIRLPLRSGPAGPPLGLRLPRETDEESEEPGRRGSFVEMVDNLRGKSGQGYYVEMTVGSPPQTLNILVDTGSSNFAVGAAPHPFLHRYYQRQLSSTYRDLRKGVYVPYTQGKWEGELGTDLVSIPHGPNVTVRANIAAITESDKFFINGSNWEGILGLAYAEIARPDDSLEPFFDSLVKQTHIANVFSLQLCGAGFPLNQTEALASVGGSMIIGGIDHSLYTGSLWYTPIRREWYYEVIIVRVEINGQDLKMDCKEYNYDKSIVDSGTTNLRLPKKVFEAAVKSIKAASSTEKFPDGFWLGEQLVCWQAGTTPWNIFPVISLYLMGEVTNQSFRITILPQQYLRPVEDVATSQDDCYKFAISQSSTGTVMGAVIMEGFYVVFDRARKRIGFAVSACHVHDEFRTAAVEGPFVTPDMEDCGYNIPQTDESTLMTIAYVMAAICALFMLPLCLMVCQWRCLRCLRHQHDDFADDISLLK
Sequence of Voltage-gated inwardly rectifying potassium channel KCNH2 (Q12809 whole entry): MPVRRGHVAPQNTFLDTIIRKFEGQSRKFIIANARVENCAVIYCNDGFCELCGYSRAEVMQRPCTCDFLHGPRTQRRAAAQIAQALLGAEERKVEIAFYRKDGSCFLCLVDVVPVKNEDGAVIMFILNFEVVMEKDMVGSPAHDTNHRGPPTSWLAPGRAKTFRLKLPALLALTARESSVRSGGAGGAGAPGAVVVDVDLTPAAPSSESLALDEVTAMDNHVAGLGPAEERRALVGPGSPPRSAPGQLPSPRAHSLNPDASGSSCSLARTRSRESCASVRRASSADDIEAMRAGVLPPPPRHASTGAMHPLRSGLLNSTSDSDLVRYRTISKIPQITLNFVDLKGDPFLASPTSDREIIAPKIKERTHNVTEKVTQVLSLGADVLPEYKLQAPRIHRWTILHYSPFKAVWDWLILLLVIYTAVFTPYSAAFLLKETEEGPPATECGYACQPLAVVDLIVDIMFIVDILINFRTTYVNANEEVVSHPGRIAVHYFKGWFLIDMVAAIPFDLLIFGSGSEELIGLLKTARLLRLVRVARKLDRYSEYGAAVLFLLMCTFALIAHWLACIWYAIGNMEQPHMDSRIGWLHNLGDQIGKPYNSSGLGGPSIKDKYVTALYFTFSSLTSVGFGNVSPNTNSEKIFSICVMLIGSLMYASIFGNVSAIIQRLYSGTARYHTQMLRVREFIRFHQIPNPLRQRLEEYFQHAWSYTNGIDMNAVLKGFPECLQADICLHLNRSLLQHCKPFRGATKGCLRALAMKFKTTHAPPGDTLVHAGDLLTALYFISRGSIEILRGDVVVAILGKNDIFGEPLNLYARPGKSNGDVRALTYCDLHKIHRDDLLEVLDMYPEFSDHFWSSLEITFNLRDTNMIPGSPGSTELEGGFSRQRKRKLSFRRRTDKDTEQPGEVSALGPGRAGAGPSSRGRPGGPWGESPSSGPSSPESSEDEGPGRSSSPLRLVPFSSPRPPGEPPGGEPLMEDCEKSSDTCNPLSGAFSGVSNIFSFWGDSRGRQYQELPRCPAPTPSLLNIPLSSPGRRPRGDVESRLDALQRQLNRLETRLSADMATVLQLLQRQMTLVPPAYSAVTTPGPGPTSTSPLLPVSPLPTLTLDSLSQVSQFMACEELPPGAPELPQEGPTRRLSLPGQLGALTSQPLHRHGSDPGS

For `CN1C(N)=N[C@](C)(c2cc(NC(=O)c3ccc(F)cn3)ccc2F)CS1(=O)=O` [VERUBECESTAT], the “inhibition (INH)” value in [1] is 57%; in [2], 79%; in [3], 84%.

Regarding `Cc1cc(C#N)cnc1C(=O)Nc1ccc(F)c([C@@]2(C)N=C(N)C(C)(C)[S@@]3(=O)=NCC[C@@H]23)n1`, the inhibition in vivo at 30 mg/kg in series [4] is 60%.

Consider `COc1cnc2c(Nc3ccc(F)c([C@]4(C)CS(=O)(=O)N(C)C(N)=N4)c3)nccc2c1`, for which the Ki in series [5] was 2.6 nM; in series [6] it was 3.5 nM. The inhibition in vivo at 10 mg/kg in [7] is 68%.

As to `CC#Cc1cncc(-c2ccc3c(c2)[C@]2(N=C(C)C(N)=N2)[C@]2(CC[C@@H](OC)CC2)C3)c1`, the “inhibition (INH)” value was determined as 52% in series [8], 76% in series [9] and 90% in [10].

As to `Cc1cc(C#N)cnc1C(=O)Nc1ccc(F)c([C@@]2(C)N=C(N)[C@@](C)(F)CC2(F)F)c1`, in series [11], the inhibition in vivo at 10 mg/kg is 66%. Besides, the inhibition in vivo at 30 mg/kg in series [12] is 61%. The Kp in series [13] and in series [14] was 0.5 throughout.

For the compound `[2H]C([2H])([2H])Oc1cnc(C(=O)Nc2ccc(F)c([C@@]3(C)N=C(N)[C@@](C)(F)C[C@@H]3F)c2)cn1`, the inhibition in vivo at 3 mg/kg in series [15] turned out to be 52%. Further, the Drug uptake in [16] is recorded as 610 ng/g. The efflux ratio at 1 h in series [17] amounted to 0.85.

With `C[C@]1(c2nc(NC(=O)c3ncc(C#N)cc3Cl)ccc2F)N=C(N)OCC1(F)F`, in series [18], the IC50 was found to be 8 nM.

Take `NC1=N[C@@]2(c3cc(NC(=O)c4ccc(C(F)(F)F)cn4)ccc3F)CO[C@H](C(F)(F)F)[C@H]2CO1`: the IC50 in [19] came to 11.9 nM; in series [20], 1.03 nM; in [21], 602 nM. The results for the inhibition in vivo at 1 mg/kg in series [22] and in [23] were 65% and 55%, respectively.

In turn, `CC#CC(=O)Nc1ccc(F)c(C2(C)Cc3c(F)cncc3C(N)=N2)c1` (configuration not stated) returned an IC50 in series [24] of 54 nM.

On to `C[C@H]1C[C@H]2CSC(N)=N[C@@]2(c2ncc(NC(=O)c3ccc(OC(F)F)cn3)s2)CO1`, for which the values for the IC50 in series [25], in series [26] and in series [28] were above 100 µM, 13.6 µM and 12 µM, respectively. Besides, the pKa in [27] is 7. Moreover, the efflux ratio in series [29] is 7.

`C[C@@]1(c2cc(NC(=O)c3ccc(C#N)cn3)ccc2F)C=CSC(N)=N1` [ATABECESTAT]: the “inhibition (INH)” value in series [30], in [31] and in series [32] was above 80% each time.

Turning to `Cc1cc(Cl)cnc1C(=O)Nc1ccc(F)c([C@@]2(C)N=C(N)[C@]3(C)CC[C@H]2S3(=O)=O)c1`, the IC50 in [33] is 2 nM; in [34], 2 nM; in series [35], 1.74 mM. The inhibition in vivo at 10 mg/kg in series [36] came to 76%; in [37] it was 66%.
